From a melting point compilation (Tetko et al.)

Compound	melting point [°C]
O=C(O)C12CC3CC(C1)CC(c1ccccc1)(C3)C2	161 to 163
CS(=O)(=O)Cc1ccc(N)cc1	159 to 161
Cc1nc(C(=O)O)c(C)s1	172 to 174
N#Cc1ccccc1Oc1ccccn1	72 to 74
O=S(=O)(c1ccc(S)nc1)N1CCN(Cc2ccccc2)CC1	169 to 171
Cn1cc(C=O)c(-c2cccs2)n1	64 to 66
Clc1cc(-c2ccccc2)c2ccccc2n1	85 to 89
O=C(O)Cc1cnc2ccccc2c1	201 to 203
Sc1nnc(Cc2ccccc2)o1	124 to 126
O=C(O)c1ccc2[nH]c(=O)oc2c1	307 to 309
O=C(O)c1cc(S(=O)(=O)Cl)c(Br)cc1Br	185 to 187
CS(=O)Cc1cccc(C(=O)O)c1 (configuration not stated)	181 to 183
O=C(O)c1cn2cccnc2n1	255 to 257
COc1c(C=O)c(C)nn1C	55 to 57
Cc1c(S(=O)(=O)Cl)oc2ccc(F)cc12	81 to 83
CCCc1cc(=O)[nH]c(CCC)n1	69 to 71
CCOC(=O)c1c(-c2ccccc2)oc2ccc(O)cc12	152 to 154
Clc1c[nH]c2ccccc12	79 to 81
COc1ccc(C(=O)Nc2cc(F)ccc2C(=O)O)cc1	225 to 227
Cc1cc(F)ccc1NC(=O)C=NO	132 to 134
Cc1onc(-c2ccncc2)c1C(=O)O	249 to 251
O=C(O)CCCc1ccc(Cl)cc1	58 to 60
c1cnn(CC2CCNCC2)c1	45 to 47
Nc1c(-c2ccccc2)nn(-c2ccccc2)c1N	89 to 91

Compound	melting point [°C]
Cc1ccc(S(=O)(=O)Cl)c(F)c1	39 to 41
Cc1c(CCC(=O)O)cnn1C	139 to 141
Cc1cc(COc2ccc(C(=O)O)cc2Br)no1	200 to 202
CC(C)Cn1c(S)nc2scc(-c3cccs3)c2c1=O	236 to 238
COc1ccc(CCNC(N)=S)cc1OC	159 to 161
Cc1nn(-c2ccc(F)cc2)c2[nH]nc(N)c12	168 to 170
NC(=O)NCCCC(=O)O	171 to 173
Cc1noc(C)c1COc1cccc(C(=O)O)c1	157 to 159
Cn1cccc1C(=O)NC(=O)CCl	139 to 141
NC(=O)c1cc(Cl)nnc1Cl	176 to 178
Nc1ccccc1NS(=O)(=O)c1cccs1	188 to 190
O=C(O)c1ccccc1OCCOc1ccccc1	84 to 86
NC(=NO)c1cccc([N+](=O)[O-])c1	182 to 184
O=C(CCl)Nc1sc2c(c1C(=O)NCc1ccccc1)CCCC2	306 to 308
Cc1cc(C(=O)NN)c(C)n1-c1ccc(F)cc1	160 to 162
COc1ccc2[nH]c3c(c2c1)CCC3	119 to 121
Cn1nnnc1SCC(=O)Nc1ccc(C(=O)O)cc1	190 to 192
Cc1cc2cc(C(=O)O)oc2cc1C	269 to 271
CN(C)C1CCN(c2ccc(N)cc2)CC1	119 to 121
Cc1c(O)cccc1OCCN1CCOCC1	117 to 119
Cc1cc(NC(=O)CCl)no1	182 to 190
Cc1cc(C)nc(SCc2ccc(C(=O)NN)cc2)n1	135 to 137
Cc1ccc(C(=O)C(Cl)c2ccc(C)cc2)cc1 (configuration not stated)	67 to 69
BrCCOc1ccc(Oc2ccccc2)cc1	35 to 37

Compound	melting point [°C]
CC(=O)c1c[nH]c(C(=O)O)c1	201 to 203
Cc1cc(C#N)ccc1C(=O)O	192 to 194
CN(C)c1ccc(C(=N)N)c(F)c1	133 to 135
NC(=O)Cc1ccc(Cl)cc1	183 to 185
COc1ccc(CCNC(C)=O)cc1S(=O)(=O)Cl	76 to 78
Cc1sc(-n2c(C)ccc2C)c(C(=O)O)c1C	171 to 173
Clc1nc(-c2ccsc2)nc2ccccc12	122 to 124
O=C(CCl)Nc1ccc(SC(F)F)cc1	55 to 57
O=C(O)C1=CCCCO1	66 to 68
COC(=O)c1[nH]c(C)cc1N	128 to 130
O=C(O)c1ccc(S(=O)(=O)Cl)c(Cl)c1	199 to 201
Cc1cc(C(=O)CCl)ccc1F	33 to 35
Cn1cc(C=O)c(-c2ccccc2)n1	59 to 61
COC(=O)Cn1cnc(C#N)n1	53 to 55
NCCCCN1CCN(CCO)CC1	90 to 92
Nc1noc(COc2ccc(F)cc2)n1	154 to 156
Fc1ccc(-c2ccc(Cl)nn2)cc1	159 to 161
COCCOc1ccc(C(F)(F)F)cc1NC(=O)CCl	80 to 82
CCOc1ccc(-c2nnc(SC(F)F)n2CCC(=O)O)cc1	198 to 200
Sc1nc(-c2ccccc2)ns1	161 to 163
CC(Cl)C(=O)Nc1ccc2c(c1)OCCCO2 (configuration not stated)	97 to 99
Cc1noc(-c2ccccc2N)n1	120 to 122
O=S(=O)(CCN1CCCC(O)C1)c1ccc(Br)cc1 (configuration not stated)	182 to 184
O=C(CCl)NC(=O)NC12CC3CC(CC(C3)C1)C2	169 to 171
